We go through 1 molecule from patent US20220288156A1, “TREATMENT” (QUEEN MARY UNIVERSITY OF LONDON, priority 2019, published 2022).

The test system of assay [1] is AAC model of heart failure. Put plainly: Cardiac blood vessel density (CD31 immunostaining) in AAC model. The settings on record: ldCil for 3 weeks. In kind it is in vivo, mouse. The text has this: Male C57BL6 mice (Charles River) underwent AAC surgery at 4-5 weeks of age (between 20 and 22 g). Mice were anaesthetised with isoflurane, placed in a supine position on the procedure table, and an incision made along the ventral underbelly, extending from the xiphoid process of the sternum, down to the groin to reveal the abdominal muscle. The abdominal muscle was then cut the same distance along the linea alba to allow easy reattachment of the two halves. The two sides of the abdominal muscles were clipped back to reveal the abdominal gastrointestinal organs, and these were carefully manoeuvred to expose the underlying abdominal aorta. […] Hearts were halved longitudinally and either snap frozen in liquid nitrogen (for immunohistochemistry) or stored in an RNA later stabilisation solution (for RT-quantitative PCR) (ThermoFisher Scientific, Hertfordshire, UK).
For anti-CD31 (BD Bioscience) detection, 5 μm snap-frozen sections were blocked in 5% normal goat serum in PBS for 1 h, followed by incubation with anti-CD31 primary antibody (clone H-3, sc-376764, Santa Cruz, 1:100) in blocking buffer (5% normal goat serum in PBS) for 2 h at room temperature. […] To quantify cardiac blood vessel density, the number of CD31-positive blood vessels present across an entire area of abdominally-orientated cardiac tissue was counted within a field of view taken at 40× magnification. […]

Assay [2] has as its system AngII-stimulated mouse cardiomyocytes. In words: RNA-Seq of AngII-stimulated cardiomyocytes treated with ldCil, comparison with human heart data. The class given is cell-based. As for the experimental part: Primary mouse cardiomyocytes were isolated from the whole hearts of 1-3-day old C57/BL6 wild-type mice. Hearts were dissected and removed from the thoracic cavity, mechanically minced with scissors and digested in cardiomyocyte isolation enzyme 1 (200 μl per heart) and cardiomyocyte isolation enzyme 2 (10 μl per heart) (Pierce primary cardiomyocyte isolation kit, Thermo Scientific). Digested hearts were then homogenised by gently pipetting up to 30 times with a 1 ml pipette, and the resulting single cell suspension added to complete DMEM solution (DMEM, 10% FBS, 1% Penicillin Streptomycin stock solution). After combination of all cell suspensions, the total number of viable cells were counted, and plated at approximately 1 million cells per single well of a 6 well plate. The following day, wells were washed with PBS (without calcium and magnesium), and complete cardiomyocyte growth medium added. Complete cardiomyocyte medium thereafter was replaced every other day.
Following 5 days culture at 37° C., 5% CO2, primary mouse cardiomyocytes were serum starved for 24 h in a 0.5 FBS-DMEM media. On day 6 cells were washed and refed with complete cardiomyocyte growth medium plus or minus 1 μM angiotensin II (Alfa Aesar), and this was repeated on day 7. In tandem to angiotensin II treatment, cells were either treated with vehicle or low dose Cilengitide (20 nM) (Bachem). On 8-day cardiomyocytes were lysed for RNA analysis.
Medium was removed and cells were washed 3 times in PBS. 350 μl RLT lysis buffer (Qiagen) (plus 1:100 beta-mercaptoethanol) was added to each well to disrupt and lyse the cells. Cell lysate samples were then combined with an equal volume of 70% ethanol, before RNA was extracted according to the manufacturer's instructions, before being stored at −80° C. until required. For whole hearts, less than 100 mg of tissue was lysed with 700 μl RLT lysis buffer (Qiagen) (supplemented 1:100 beta-mercaptoethanol) in a QIAshredder (Qiagen) for 10 min. Tissues were then processed as above with the RNeasy mini kit.
RNA-Seq was performed by Barts and the London Genome Centre on the Illumina NextSeq 500 platform, generating on average ˜15-17 million paired-end reads of 76 bp in length per sample. After quality check using FastQC, raw reads were mapped to the mouse genome (mm10, Genome Reference Consortium GRCm38) in the strand-specific mode using HISAT2 (65). Number of uniquely aligned reads (q>10) to the exonic region of each gene were counted using HTSeq (66) based on the GenCode annotation version M16 (Ensembl v91). Only genes that achieved at least one read count per million reads (cpm) in at least four samples (i.e., number of samples per group) were kept. Conditional quantile normalisation (cqn) was then performed accounting for gene length and GC content, and a log2 transformed reads per kilobase of transcript per million mapped reads RPKM expression matrix was subsequently generated. Differential expression analysis was performed using the ‘limma’ R package (67). Gene-set enrichment analysis (GSEA) was performed using the GSEA software (68) to identify dysregulated canonical pathways curated in the Molecular Signatures Database (MSigDB-C2-CP v6.2) (FDR q<0.1). RNA-Seq data have been deposited in Gene Expression Omnibus (GEO) under the accession number GSE127854.
The GSE57338 microarray dataset of a total of 313 individuals which included 95 ischemic patients, 82 dilated cardiomyopathy patients, and 136 individuals with non-failing hearts, was downloaded from GEO. Differential expression analysis was performed using the ‘limma’ R package comparing ischemic vs non-failing and dilated vs non-failing. GSEA was performed using the GSEA software (PMID:16199517) to identify the dysregulated canonical pathways as described above. The overlap of differentially expressed gene and pathways (p<0.05) was then examined in relation to the mouse cardiomyocyte data. […]

Assay [3] relates to pathological angiogenesis. The settings on record: cited from earlier work.
Where [4] appears, read: AngII vs AngII+ldCil, human failing vs non-failing.
[5] abbreviates: human idiopathic dilated cardiomyopathy vs non-failing.
The mark [6] stands for this setting: human ischemic heart vs non-failing.
Where [7] appears, read: low doses, 50 μg/kg in vivo or 2 nM in vitro.

In the case of `CC(C)[C@H]1C(=O)N[C@@H](CCCN=C(N)N)C(=O)NCC(=O)N[C@@H](CC(=O)O)C(=O)N[C@H](Cc2ccccc2)C(=O)N1C` [Cilengitide, c(f*VRGD)], the “cardiac blood vessel density” value in assay [1] (AAC surgery) was “significantly enhanced”. Further, the “cardiac blood vessel density” value in assay [1] (SHAM surgery) was “no significant effect”. Moreover, the “transcriptomic alterations induced by AngII” value in assay [2] (1 μM AngII plus ldCil 20 nM) is recorded as “back to control treated cardiomyocyte levels”. Besides, in assay [2] (AngII plus ldCil), the “PI3K and Akt signalling pathways downregulated by AngII” value was “fold change restoration of both these pathways are most highly expressed”; the “TCA and oxidative stress pathways increased by AngII” value is recorded as “restored”. For the same molecule, in assay [2] (setting [4]), the “downregulated genes concordant with human failing heart restored to non-failing human heart levels” value came to 13 genes and the “upregulated genes concordant with human failing heart restored to non-failing human heart levels” value is given as 8 genes. Also, the “AngII-induced differential expression of pathways (GSEA)” value in assay [2] (AngII+ldCil compared to control, FDR q>0.1) is recorded as “no longer significant”. Moreover, in assay [2] (setting [5]), the “concordantly downregulated pathways restored to non-failing human heart profiles” value was found to be 8 pathways and the “concordantly upregulated pathways restored to non-failing human heart profiles” value is 4 pathways. Further, in assay [2] (setting [6]), the “concordant downregulated pathways restored” value is 5 pathways, the concordant pathways restored came to 6 pathways and the “concordant upregulated pathways restored” value came out at 1 pathways. For the same molecule, the “chemotherapy efficacy in cancer models in vivo” value in assay [3] (ldCil with chemotherapy) was “improve chemotherapy efficacy”. Also, in assay [3] (setting [7]), the “effect on quiescent vasculature” value is “no apparent effects” and the pathological angiogenesis result is on record as “enhance pathological angiogenesis”.
